Test system: P12-Ichikawa
Assay: cell viability relative to DMSO control; higher = less cytotoxic
Conditions: 48 h
Outline: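 Viability is a per-plate percentage relative to DMSO wells, with cell-free wells as background. CellTiter-Glo One luminescence was read after 48 h at 37°C on 1536-well plates (5 μl) of NOMO1 or SEM (500 cells/well) or P12-Ichikawa (1000 cells/well) leukemia cells. The cells had been adapted for at least four passages in each medium and pin-dosed with library compounds in DMSO from 47 μM to 0.79 nM in 11 threefold steps.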

[1] = HPLM + 10% dialyzed FBS, 0.000781 µM
[2] = HPLM + 10% dialyzed FBS, 0.00234 µM
[3] = HPLM + 10% dialyzed FBS, 0.00702 µM
[4] = HPLM + 10% dialyzed FBS, 0.0211 µM
[5] = HPLM + 10% dialyzed FBS, 0.0632 µM
[6] = HPLM + 10% dialyzed FBS, 0.19 µM
[7] = HPLM + 10% dialyzed FBS, 0.569 µM
[8] = HPLM + 10% dialyzed FBS, 1.71 µM
[9] = HPLM + 10% dialyzed FBS, 5.12 µM
[10] = HPLM + 10% dialyzed FBS, 15.4 µM
[11] = HPLM + 10% dialyzed FBS, 46.1 µM
[12] = RPMI 5 mM glucose + 10% FBS, 0.000781 µM
[13] = RPMI 5 mM glucose + 10% FBS, 0.00234 µM
[14] = RPMI 5 mM glucose + 10% FBS, 0.00702 µM
[15] = RPMI 5 mM glucose + 10% FBS, 0.0211 µM
[16] = RPMI 5 mM glucose + 10% FBS, 0.0632 µM
[17] = RPMI 5 mM glucose + 10% FBS, 0.19 µM
[18] = RPMI 5 mM glucose + 10% FBS, 0.569 µM
[19] = RPMI 5 mM glucose + 10% FBS, 1.71 µM
[20] = RPMI 5 mM glucose + 10% FBS, 5.12 µM
[21] = RPMI 5 mM glucose + 10% FBS, 15.4 µM
[22] = RPMI 5 mM glucose + 10% FBS, 46.1 µM
[23] = RPMI 5 mM glucose + 10% dialyzed FBS, 0.000781 µM
[24] = RPMI 5 mM glucose + 10% dialyzed FBS, 0.00234 µM
[25] = RPMI 5 mM glucose + 10% dialyzed FBS, 0.00702 µM
[26] = RPMI 5 mM glucose + 10% dialyzed FBS, 0.0211 µM
[27] = RPMI 5 mM glucose + 10% dialyzed FBS, 0.0632 µM
[28] = RPMI 5 mM glucose + 10% dialyzed FBS, 0.19 µM
[29] = RPMI 5 mM glucose + 10% dialyzed FBS, 0.569 µM
[30] = RPMI 5 mM glucose + 10% dialyzed FBS, 1.71 µM
[31] = RPMI 5 mM glucose + 10% dialyzed FBS, 5.12 µM
[32] = RPMI 5 mM glucose + 10% dialyzed FBS, 15.4 µM
[33] = RPMI 5 mM glucose + 10% dialyzed FBS, 46.1 µM

C=C1C(=O)[C@@]23C(CC[C@@H]1[C@H]2O)[C@@]12CO[C@]3(O)[C@@H](O)[C@@H]1C(C)(C)CC[C@@H]2O (stereo not given in full)
cell viability [1]: 108% | cell viability [2]: 119% | cell viability [3]: 120% | cell viability [4]: 123% | cell viability [5]: 122% | cell viability [6]: 115% | cell viability [7]: 113% | cell viability [8]: 112% | cell viability [9]: 89.1% | cell viability [10]: 44.7% | cell viability [11]: 3.48% | cell viability [12]: 116% | cell viability [13]: 116% | cell viability [14]: 119% | cell viability [15]: 119% | cell viability [16]: 132% | cell viability [17]: 118% | cell viability [18]: 113% | cell viability [19]: 95.5% | cell viability [20]: 85.7% | cell viability [21]: 16.6% | cell viability [22]: 3.61% | cell viability [23]: 116% | cell viability [24]: 117% | cell viability [25]: 126% | cell viability [26]: 123% | cell viability [27]: 125% | cell viability [28]: 124% | cell viability [29]: 111% | cell viability [30]: 105% | cell viability [31]: 75.6% | cell viability [32]: 21.9% | cell viability [33]: 3.49%

Cc1ccc([N+](=O)[O-])cc1[S+](=O)([O-])N(C)/N=C/c1cnc2ccc(Br)cn12
cell viability [1]: 120% | cell viability [2]: 110% | cell viability [3]: 113% | cell viability [4]: 118% | cell viability [5]: 108% | cell viability [6]: 50.1% | cell viability [7]: 20.2% | cell viability [8]: 7.63% | cell viability [9]: 9.25% | cell viability [10]: 9.2% | cell viability [11]: 4.27% | cell viability [12]: 114% | cell viability [13]: 106% | cell viability [14]: 112% | cell viability [15]: 113% | cell viability [16]: 95.6% | cell viability [17]: 40.9% | cell viability [18]: 15.2% | cell viability [19]: 5.49% | cell viability [20]: 6.55% | cell viability [21]: 8.88% | cell viability [22]: 3.76% | cell viability [23]: 119% | cell viability [24]: 122% | cell viability [25]: 111% | cell viability [26]: 115% | cell viability [27]: 91.3% | cell viability [28]: 51% | cell viability [29]: 24.6% | cell viability [30]: 9.55% | cell viability [31]: 10.3% | cell viability [32]: 12.4% | cell viability [33]: 5.41%

N[C@H]2CN(CC12CC1)c3c(F)cc4c(c3Cl)[N@@](C=C(C4=O)C(=O)O)C5C[C@H]5F (stereo not given in full)
cell viability [1]: 97.7% | cell viability [2]: 91.2% | cell viability [3]: 101% | cell viability [4]: 87.6% | cell viability [5]: 96.6% | cell viability [6]: 89.8% | cell viability [7]: 87.3% | cell viability [8]: 96.1% | cell viability [9]: 88.8% | cell viability [10]: 85.4% | cell viability [11]: 89.9% | cell viability [12]: 79.9% | cell viability [13]: 91% | cell viability [14]: 88.8% | cell viability [15]: 90.4% | cell viability [16]: 85.8% | cell viability [17]: 94.5% | cell viability [18]: 83% | cell viability [19]: 82.9% | cell viability [20]: 95% | cell viability [21]: 83.5% | cell viability [22]: 86.1% | cell viability [23]: 80.7% | cell viability [24]: 84.8% | cell viability [25]: 86% | cell viability [26]: 88.3% | cell viability [27]: 82.5% | cell viability [28]: 85.2% | cell viability [29]: 80.9% | cell viability [30]: 78% | cell viability [31]: 84.2% | cell viability [32]: 77.7% | cell viability [33]: 81.3%

CC1(CN2CCC(n3c(=O)[nH]c4ccccc43)CC2)OCc2ccccc2-n2cccc21 (stereo not given)
cell viability [1]: 99.7% | cell viability [2]: 97.6% | cell viability [3]: 105% | cell viability [4]: 98.7% | cell viability [5]: 102% | cell viability [6]: 104% | cell viability [7]: 94.4% | cell viability [8]: 99.9% | cell viability [9]: 99% | cell viability [10]: 99.6% | cell viability [11]: 92.8% | cell viability [12]: 96% | cell viability [13]: 99.9% | cell viability [14]: 93.1% | cell viability [15]: 94.8% | cell viability [16]: 98.3% | cell viability [17]: 98.5% | cell viability [18]: 106% | cell viability [19]: 109% | cell viability [20]: 102% | cell viability [21]: 96.8% | cell viability [22]: 87.9% | cell viability [23]: 94% | cell viability [24]: 92.5% | cell viability [25]: 96.4% | cell viability [26]: 97.2% | cell viability [27]: 97.7% | cell viability [28]: 99.2% | cell viability [29]: 94% | cell viability [30]: 93.8% | cell viability [31]: 98.7% | cell viability [32]: 94.3% | cell viability [33]: 98.5%

CC(C)(S)[C@@H](N)C(=O)O
cell viability [1]: 108% | cell viability [2]: 112% | cell viability [3]: 115% | cell viability [4]: 120% | cell viability [5]: 106% | cell viability [6]: 120% | cell viability [7]: 113% | cell viability [8]: 122% | cell viability [9]: 117% | cell viability [10]: 115% | cell viability [11]: 108% | cell viability [12]: 100% | cell viability [13]: 109% | cell viability [14]: 114% | cell viability [15]: 121% | cell viability [16]: 96.1% | cell viability [17]: 112% | cell viability [18]: 118% | cell viability [19]: 121% | cell viability [20]: 115% | cell viability [21]: 125% | cell viability [22]: 99.5% | cell viability [23]: 104% | cell viability [24]: 110% | cell viability [25]: 103% | cell viability [26]: 115% | cell viability [27]: 98% | cell viability [28]: 109% | cell viability [29]: 107% | cell viability [30]: 112% | cell viability [31]: 114% | cell viability [32]: 111% | cell viability [33]: 95.8%

— the supplement of paper PMC11451515
